# According to ChEMBL document CHEMBL1201862, “PubChem BioAssay data set” (2004):
# Calls of active or inactive are those of the source.
# Legend:
# [1] = Shn3 3'UTR reporter inhibitors, dose response, cell-based, Clone20 osteoblasts, firefly luciferase, cherry-picked (AID 624132); format: functional;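 note: firefly luciferase luminescence from reporter carrying the Shn3 3'UTR in osteoblasts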
# [2] = control 3'UTR Renilla luciferase suppression, dose response, counter-screen for Shn3 inhibitor project, cell-based, Clone20-Shn3RL, cherry-picked (AID 624133); format: functional
# [3] = reduction of Shn3 3'UTR firefly luciferase signal, dose response, Schnurri-3 inhibitor project, cell-based, Clone20 osteoblasts, cherry-pick, set 2 (AID 720490); format: functional;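 note: actives lower the luminescence signal as inhibitors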
# [4] = Luminescence Cell-Based Dose Response to Identify Activators of 5'UTR Stem-Loop Driven Prion Protein mRNA Translation in H4-C Neuroglioblastoma Cells. [Related pubchem assays: 1829 (Project Summary), 1814 (Primary HTS)]; format: functional
# [5] = Luminescence Cell-Based Dose Response HTS to Identify Activators of Luciferase Translation or Activity in H4 […] Cells. [Related pubchem assays: 1829 (Project Summary), 1814 (Primary HTS)]; format: functional
# [6] = Luminescence Cell-Based Dose Response to Identify Activators of Luciferase Translation or Activity in H4-C Neuroglioblastoma Cells. [Related pubchem assays: 1829 (Project Summary), 1814 (Primary HTS)]; format: functional
# [7] = Luminescence Cell-Based Dose Confirmation to Identify Activators of 5'UTR Stem-Loop Driven Alpha-Synuclein mRNA Translation in H4 Neuroglioblastoma Cells. [Related pubchem assays: 1829 (Project Summary), 1814 (Primary HTS)]; format: functional
# [8] = biological target: T1, Oxysterols receptor LXR-beta (Homo sapiens, UniProt P55055); format: functional, cell-based;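 note: Cell-based luminescence dose-response assay of agonist activity at LXR, run as a confirmatory counterscreen to a daf-12 agonist screen; agonist potency from rising luciferase signal of a Gal4-LXR reporter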
# T1 sequence (P55055 whole entry): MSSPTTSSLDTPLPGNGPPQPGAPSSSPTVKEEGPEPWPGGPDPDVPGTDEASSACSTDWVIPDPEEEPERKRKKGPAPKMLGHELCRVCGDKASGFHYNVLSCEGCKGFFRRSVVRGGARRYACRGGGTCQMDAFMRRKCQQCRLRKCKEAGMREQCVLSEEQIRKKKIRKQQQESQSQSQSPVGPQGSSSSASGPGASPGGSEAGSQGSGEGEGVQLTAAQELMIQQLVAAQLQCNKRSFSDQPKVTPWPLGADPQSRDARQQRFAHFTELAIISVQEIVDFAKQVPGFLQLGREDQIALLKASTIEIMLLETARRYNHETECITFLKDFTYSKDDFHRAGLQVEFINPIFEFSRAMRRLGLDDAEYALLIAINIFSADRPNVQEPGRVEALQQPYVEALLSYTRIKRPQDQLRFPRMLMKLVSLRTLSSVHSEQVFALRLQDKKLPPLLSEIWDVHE
# cells [9] = test: cells
# [10] = biological target: Bifunctional protein GlmU (Mycobacterium tuberculosis, UniProt P9WMN3); test: Inhibitors of Mycobacterial Glucosamine-1-phosphate acetyl transferase (GlmU). Secondary screen.; set-up: species or system Mycobacterium tuberculosis H37Rv
# Sequence of Bifunctional protein GlmU (P9WMN3 whole entry, the tested form may be a part): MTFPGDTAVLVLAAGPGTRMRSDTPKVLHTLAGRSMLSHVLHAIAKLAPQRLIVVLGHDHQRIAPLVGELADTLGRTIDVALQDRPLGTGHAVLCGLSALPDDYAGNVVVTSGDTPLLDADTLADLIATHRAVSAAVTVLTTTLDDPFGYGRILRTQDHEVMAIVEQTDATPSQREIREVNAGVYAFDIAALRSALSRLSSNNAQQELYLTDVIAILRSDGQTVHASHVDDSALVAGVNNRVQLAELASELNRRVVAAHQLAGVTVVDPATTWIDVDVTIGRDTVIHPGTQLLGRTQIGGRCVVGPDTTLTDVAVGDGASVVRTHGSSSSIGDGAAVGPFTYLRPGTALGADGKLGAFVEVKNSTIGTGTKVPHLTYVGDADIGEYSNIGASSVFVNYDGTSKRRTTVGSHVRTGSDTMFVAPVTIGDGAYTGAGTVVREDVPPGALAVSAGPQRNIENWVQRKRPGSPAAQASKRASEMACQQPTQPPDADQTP
# [11] = biological target: T2, Carboxy-terminal domain RNA polymerase II polypeptide A small phosphatase 1 (Homo sapiens, UniProt Q9GZU7); test: inhibitors of CTDSP1, concentration-response testing, biochemical assay, absorbance-based, actives from ultra-high-throughput screening (AID 540297); format: functional
# T2 sequence (Q9GZU7 whole entry): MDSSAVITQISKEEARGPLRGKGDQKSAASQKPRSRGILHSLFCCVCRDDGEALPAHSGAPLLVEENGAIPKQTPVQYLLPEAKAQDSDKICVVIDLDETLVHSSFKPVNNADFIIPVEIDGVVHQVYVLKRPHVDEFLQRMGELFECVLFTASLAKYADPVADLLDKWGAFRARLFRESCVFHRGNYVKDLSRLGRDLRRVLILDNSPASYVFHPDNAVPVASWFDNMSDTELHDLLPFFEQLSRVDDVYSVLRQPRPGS
# Caspase-6 = biological target: T3, Caspase-6 (Homo sapiens, UniProt P55212); test: human caspase-6 inhibitors, dose response, biochemical, VEID-R110 fluorescence, cherry-pick (AID 720632)
# T3 sequence (P55212 whole entry): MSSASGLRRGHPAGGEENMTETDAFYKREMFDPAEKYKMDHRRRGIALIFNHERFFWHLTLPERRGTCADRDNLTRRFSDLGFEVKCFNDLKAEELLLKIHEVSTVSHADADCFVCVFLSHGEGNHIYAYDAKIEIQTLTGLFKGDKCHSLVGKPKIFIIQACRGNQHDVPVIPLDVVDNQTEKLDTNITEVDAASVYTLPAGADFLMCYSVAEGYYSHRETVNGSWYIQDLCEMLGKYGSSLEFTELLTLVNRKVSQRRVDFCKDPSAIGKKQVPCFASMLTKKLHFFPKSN
# [12] = biological target: Mitogen-activated protein kinase 10 (Homo sapiens, UniProt P53779); test: Dose response biochemical screening assay for inhibitors of c-Jun N-Terminal Kinase 3 (JNK3). [Related pubchem assays: 746 ]
# Sequence of Mitogen-activated protein kinase 10 (P53779 whole entry): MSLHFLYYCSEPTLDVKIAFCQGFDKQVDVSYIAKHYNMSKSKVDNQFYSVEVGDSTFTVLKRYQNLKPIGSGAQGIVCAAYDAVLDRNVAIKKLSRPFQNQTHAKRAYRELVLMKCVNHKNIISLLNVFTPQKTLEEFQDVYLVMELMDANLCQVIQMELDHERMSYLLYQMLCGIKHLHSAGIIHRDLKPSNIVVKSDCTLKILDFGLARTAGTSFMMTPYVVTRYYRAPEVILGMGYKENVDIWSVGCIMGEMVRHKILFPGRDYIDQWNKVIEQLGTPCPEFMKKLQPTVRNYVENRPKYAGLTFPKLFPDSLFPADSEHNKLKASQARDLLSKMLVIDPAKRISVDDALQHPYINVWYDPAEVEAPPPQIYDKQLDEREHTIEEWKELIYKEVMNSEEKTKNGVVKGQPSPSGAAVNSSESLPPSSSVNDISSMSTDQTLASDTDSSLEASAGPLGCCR
# [13] = Luminescence-based cell-based high throughput dose response assay to identify activators of the DAF-12 from the parasite S. stercoralis (ssDAF-12).; format: functional
# [14] = biological target: T1, Oxysterols receptor LXR-beta; test: LXR agonists, Gal4 luciferase reporter, dose response, counter-screen for ssDAF-12 agonist project, cell-based, luminescence, HEK293, S. stercoralis campaign (AID 720737); format: functional; conditions: read-out: IC50 (the source's name)
# [15] = inhibitors of intracellular T. cruzi replication, confirmation, NIH3T3 host cells, beta-gal luminescence (AID 2044); format: functional, cell-based;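 note: intracellular parasites grown in NIH/3T3 mouse fibroblasts as host cells; luminescent beta-galactosidase reporter signal from transgenic T. cruzi replicating inside host cells; inhibitors lower the luminescence signal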
# [16] = cytotoxicity toward NIH3T3 fibroblasts, dose response, counter-screen, cell-based, ATP luminescence, mouse fibroblasts (AID 2010); format: functional;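 note: cells exposed to compound for about 90 hours before reading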
# cells [17] = test: cells; remark: listed apart in the source
# HEK293 = test: inhibitors of LMP1-driven NF-kB reporter, dose response, cell-based, HEK293, luciferase, cherry-pick (AID 588343); format: functional; conditions: Homo sapiens
# [18] = HepG2 cell cytotoxicity, dose response, cytotoxicity control for Shn3 inhibitor project, CellTiter-Glo, cherry-picked (AID 624134); format: functional, cell-based
# cells [19] = conditions: HEK293
smiles,measurement,setting,value
CCOC(=O)C1CCCN(S(=O)(=O)c2ccc(S(=O)(=O)N3CCCC3)cc2)C1 (configuration not stated),AC50,[1],0.821 µM (active)
same,AC50,[2],2.94 µM (active)
same,AC50,[3],2.1 µM (active)
COc1ccc(-c2ccc(-c3nnn(CC(C)=O)n3)cc2)cc1,EC50,[4],0.521 µM (active)
same,EC50,[5],< 0.1 µM (inconclusive)
same,EC50,[6],0.257 µM (active)
same,EC50,[7],0.364 µM (active)
Cc1occc1C(=O)N=Nc1c(O)n(C)c2ccccc12,EC50,[5],0.526 µM (active)
same,EC50,[8],> 67.5 µM (inactive)
same,EC50,cells [9],> 67.5 µM (inactive)
O=C(O)c1ccc(N2C(=O)c3cccc4c(C(=O)O)ccc(c34)C2=O)cc1,IC50,[10],98.9 µM (active)
same,IC50,[11],3.53 µM (active)
same,AC50,Caspase-6,7.17 µM (active)
O=C(CCn1cnc2ccccc2c1=O)Nc1ccc(S(=O)(=O)N2CCCC2)cc1,IC50,[12],38.2 µM (not active)
COc1ccc(C(=N)NOC(=O)c2cccs2)cc1,IC50,[13],> 67.6 µM (inactive)
same,EC50,[14],> 67.6 µM (inactive)
Cc1ccc2c(CN3CCN(CCO)CC3)cc(=O)oc2c1C,EC50,[15],< 0.1 µM (active)
same,EC50,[16],> 60 µM (not active)
same,EC50,cells [17],0.019 µM (active)
CCc1ccccc1NC(=O)COC(=O)c1c(C)nsc1NC,AC50,HEK293,133 µM (active)
same,AC50,[1],2.48 µM (active)
same,AC50,[18],64.7 µM (active)
same,AC50,[2],9.08 µM (active)
same,AC50,[3],2.76 µM (active)
Cn1nc(-c2ccc(Cl)cc2)c2cc(C(=O)N3CCN(c4ccccc4)CC3)sc21,AC50,cells [19],> 52 µM (inactive)
CC(C)(C)NC(=O)NC(=O)COc1ccc(Br)cc1Br,EC50,[8],> 67.5 µM (inactive)
same,EC50,cells [9],> 67.5 µM (inactive)
